Where two headings read alike, the source gives them in different places.

The target of assay [1] is T1, μ-opioid receptor (Homo sapiens, UniProt P35372). Kind of assay: μ-opioid receptor radioligand dose-displacement binding assay. As for the experimental part: Radioligand dose-displacement binding assays for μ-opioid receptors used 0.3 nM [^3H]-diprenorphine (Perkin Elmer, Shelton, Conn.), with […] membrane protein/well in a final volume of […] binding buffer (10 mM MgCl2, 1 mM EDTA, 5% DMSO, 50 mM HEPES, pH 7.4). Reactions were carried out in the absence or presence of increasing concentrations of unlabeled naloxone. All reactions were conducted in 96-deep well polypropylene plates for 2 hr at room temperature. […] The data were analyzed using the one-site competition curve fitting functions in GraphPad PRISM™ v. 3.0 or higher (San Diego, Calif.), or an in-house function for one-site competition curve-fitting.
Target sequence in this assay (P35372 whole entry): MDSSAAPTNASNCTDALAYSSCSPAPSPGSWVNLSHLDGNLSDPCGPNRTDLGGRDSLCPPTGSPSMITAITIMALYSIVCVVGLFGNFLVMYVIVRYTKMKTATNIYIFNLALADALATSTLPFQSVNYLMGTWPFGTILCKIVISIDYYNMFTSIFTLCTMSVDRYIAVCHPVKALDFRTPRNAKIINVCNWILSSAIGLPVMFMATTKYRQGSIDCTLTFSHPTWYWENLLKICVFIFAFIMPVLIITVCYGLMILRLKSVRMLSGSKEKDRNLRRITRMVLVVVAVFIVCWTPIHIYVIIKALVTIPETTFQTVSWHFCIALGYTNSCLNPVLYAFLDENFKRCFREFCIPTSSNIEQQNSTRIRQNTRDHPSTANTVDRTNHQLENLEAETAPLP

Assay [2] has as its target T2, κ opioid receptor (Homo sapiens, UniProt P41145). Kind of assay: κ-opioid receptor [35S]GTPγS functional assay. Also on record: expressed in transfected cells. The note with it: for Emax: relative to the effect elicited by U69,593. The format is biochemical. As for the experimental part: (§1) Functional [^35S]GTPγS binding assays were conducted as follows. κ opioid receptor membrane solution was prepared by sequentially adding final concentrations of 0.026 μg/μl κ membrane protein (in-house), 10 μg/mL saponin, 3 μM GDP and 0.20 nM [^35S]GTPγS to binding buffer (100 mM NaCl, 10 mM MgCl2, 20 mM HEPES, pH 7.4) on ice. The prepared membrane solution (190 μl/well) was transferred to 96-shallow well polypropylene plates containing 10 μl of 20× concentrated stock solutions of agonist prepared in DMSO. Plates were incubated for 30 min at a temperature of about 25° C. with shaking.
κ GTP EC50 is the concentration of a compound providing 50% of the maximal response for the compound at a κ receptor.
κ GTP Emax (%) is the maximal effect elicited by a compound relative to the effect elicited by U69,593.

Assay [3] concerns the target T1, μ-opioid receptor. Kind of assay: μ-opioid receptor [35S]GTPγS functional assay. The format is biochemical. Also on record: purchased Perkin Elmer, Shelton, Conn. To be noted: for Emax: relative to the effect elicited by DAMGO. How it is done:
[^35S]GTPγS functional assays were conducted using freshly thawed μ-receptor membranes (Perkin Elmer, Shelton, Conn.). Assay reactions were prepared by sequentially adding the following reagents to binding buffer (100 mM NaCl, 10 mM MgCl2, 20 mM HEPES, pH 7.4) on ice (final concentrations indicated): membrane protein (0.026 mg/mL), saponin ([…]), GDP ([…]) and [^35S]GTPγS (0.20 nM; Perkin Elmer, Shelton, Conn.). The prepared membrane solution (190 μl/well) was transferred to 96-shallow well polypropylene plates containing 10 μI of 20× concentrated stock solutions of the agonist [D-Ala^e, N-methyl-Phe^4 Gly-ol^5]-enkephalin (DAMGO) prepared in dimethyl sulfoxide (DMSO). Plates were incubated for 30 min at about 25° C. with shaking. […] Data were analyzed using the sigmoidal dose-response curve fitting functions in GraphPad PRISM v. 3.0, or an in-house function for non-linear, sigmoidal dose-response curve-fitting.
μ GTP EC50 is the concentration of a compound providing 50% of the maximal response for the compound at a μ-opioid receptor.
μ GTP Emax (%) is the maximal effect elicited by a compound relative to the effect elicited by DAMGO, a standard μ agonist. Generally, the μ GTP Emax (%) value measures the efficacy of a compound to treat or prevent pain or other Conditions.
On the technique in general: Binding of GTPγS marks nucleotide exchange on a G protein.
Target sequence in this assay (P35372 whole entry, species assumed): as the sequence (P35372 whole entry) above

Assay [4] concerns the target T3, δ opioid receptor (Homo sapiens, UniProt P41143). Kind of assay: δ-opioid receptor [35S]GTPγS functional assay. The format is biochemical. Also on record: purchased Perkin Elmer, Shelton, Conn. How it is done: as §1, with “δ” for “κ”, “(Perkin Elmer, Shelton, Conn.),” for “(in-house),”, “[…]” for “10 μl”
δ GTP EC50 is the concentration of a compound providing 50% of the maximal response for the compound at a δ receptor.
δ GTP Emax (%) is the maximal effect elicited by a compound relative to the effect elicited by met-enkephalin. […] In another embodiment, the Compounds of the Invention will have a δ GTP Emax (%) of about 100% or greater.

Assay [5] deals with T2, κ opioid receptor. The assay can be described thus: κ-opioid receptor radioligand dose displacement binding assay. Also on record: expressed in transfected cells; host or cells: HEK-293. How it is done:
Membranes from recombinant HEK-293 cells expressing the human κ opioid receptor (κ) (cloned in house) were prepared by lysing cells in ice cold hypotonic buffer (2.5 mM MgCl2, 50 mM HEPES, pH 7.4) (10 mL/10 cm dish) followed by homogenization with a tissue grinder/Teflon pestle. Membranes were collected by centrifugation at 30,000×g for 15 min at 4° C. and pellets were resuspended in hypotonic buffer to a final concentration of 1-3 mg/mL. Protein concentrations were determined using the BioRad protein assay reagent with bovine serum albumen as standard. Aliquots of κ receptor membranes were stored at […]

Assay [6] has as its target T3, δ opioid receptor. Kind of assay: δ-opioid receptor radioligand dose-displacement binding assay.
Protocol: δ-opioid Receptor Binding Assay Procedures were conducted as follows. Radioligand dose-displacement assays used 0.3 nM [^3H]-Naltrindole (Perkin Elmer, Shelton, Conn.; 33.0 Ci/mmole) with 5 μg membrane protein (Perkin Elmer, Shelton, Conn.) in a final volume of 500 μl binding buffer (5 mM MgCl2, 5% DMSO, 50 mM Trizma base, pH 7.4). Non-specific binding was determined in the presence of 25 μM unlabeled naloxone. All reactions were performed in 96-deep well polypropylene plates for 1 hr at a temperature of about 25° C. Binding reactions were terminated by rapid filtration onto 96-well Unifilter GF/C filter plates (Perkin Elmer, Shelton, Conn.) presoaked in 0.5% polyethylenimine (Sigma). Harvesting was performed using a 96-well tissue harvester (Perkin Elmer, Shelton, Conn.) followed by five filtration washes with 500 μl ice-cold binding buffer. Filter plates were subsequently dried at 50° C. for 1-2 hours. Fifty μl/well scintillation cocktail (Perkin Elmer, Shelton, Conn.) was added and plates were counted in a Packard Top-Count for 1 min/well.
Setting [7] is: [3H]-diprenorphine displacement, read-out: Ki (nM) Opioid Receptor μ.
Setting [8] is: κ membrane protein (in-house), read-out: GTPγS κ EC50.
Where [9] appears, read: μ-receptor membranes, read-out: GTPγS μ EC50.
[10] abbreviates: [3H]-U69,593 displacement, HEK-293 membranes, read-out: Ki (nM) Opioid Receptor κ.

T2 sequence (P41145 whole entry): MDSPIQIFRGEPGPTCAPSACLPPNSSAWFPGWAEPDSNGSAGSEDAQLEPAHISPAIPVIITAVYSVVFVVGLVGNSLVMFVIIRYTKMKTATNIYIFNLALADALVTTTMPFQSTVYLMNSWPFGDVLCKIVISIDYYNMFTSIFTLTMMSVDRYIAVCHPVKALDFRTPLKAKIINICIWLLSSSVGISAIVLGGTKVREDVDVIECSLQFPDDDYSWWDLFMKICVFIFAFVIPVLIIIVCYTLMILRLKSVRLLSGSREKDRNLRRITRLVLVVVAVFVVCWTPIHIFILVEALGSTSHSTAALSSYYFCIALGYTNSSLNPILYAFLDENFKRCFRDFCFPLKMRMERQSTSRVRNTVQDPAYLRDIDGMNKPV
T3 sequence (P41143 whole entry): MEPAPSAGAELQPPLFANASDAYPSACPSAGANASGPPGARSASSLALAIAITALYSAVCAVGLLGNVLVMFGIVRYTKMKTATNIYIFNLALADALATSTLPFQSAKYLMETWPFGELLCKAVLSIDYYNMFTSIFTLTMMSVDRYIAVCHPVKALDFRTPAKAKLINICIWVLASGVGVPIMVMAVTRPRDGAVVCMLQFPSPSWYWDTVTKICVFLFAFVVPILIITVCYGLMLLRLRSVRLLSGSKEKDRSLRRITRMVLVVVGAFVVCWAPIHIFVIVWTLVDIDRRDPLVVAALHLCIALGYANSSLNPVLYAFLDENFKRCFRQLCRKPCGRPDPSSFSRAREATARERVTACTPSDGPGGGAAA

With `COc1ccc2c(c1)[C@@]1(CCCc3ccco3)CCN(CC3CC3)C(C2)C1C` (stereo in doubt) [Compound 15, (2R,6S,11S)-3-(cyclopropylmethyl)-6-(3-(furan-2-yl)propyl)-8-methoxy-11-methyl-1,2,3,4,5,6-hexahydro-2,6-methanobenzo[d]azocine], the Ki (as a rule, the equilibrium dissociation constant of an inhibitor or competing ligand from its target) was determined as 389 ± 90.2 nM on μ-opioid receptor [1] (setting [7]), 2.11 ± 0.22 nM on κ opioid receptor [5] (setting [10]) and 736 ± 196 nM at δ opioid receptor [6]. Also, the figures for the Emax on κ opioid receptor [2], on μ-opioid receptor [3] and at δ opioid receptor [4] (relative to the effect elicited by met-enkephalin) were 82.3%, 34.6% and 67%, respectively. For the same molecule, the EC50 – broadly, the concentration needed to bring the measured effect to its halfway point – was found to be 104 nM on κ opioid receptor [2] (setting [8]), 303 nM at μ-opioid receptor [3] (setting [9]) and 143 nM on δ opioid receptor [4] (δ membrane protein).
With `COc1ccc2c(c1)[C@@]1(C[C@H](O)CO)CCN(CC3CC3)C(C2)[C@@H]1C` [Compound 6, (2S)-3-((6R,11R)-3-(cyclopropylmethyl)-8-methoxy-11-methyl-1,2,3,4,5,6-hexahydro-2,6-methanobenzo[d]azocin-6-yl)propane-1,2-diol], the Ki on μ-opioid receptor [1] was 3340 ± 895 nM; at κ opioid receptor [5], 46.4 ± 9.7 nM. In addition, the EC50 at κ opioid receptor [2] is 3090 nM; at μ-opioid receptor [3] it was > 20000 nM. In addition, the Emax – broadly, the maximal effect, on the per cent scale that the assay sets – on κ opioid receptor [2] was found to be 69.3%.
As to `COC(=O)/C=C/C[C@@]12CCN(CC3CC3)C(Cc3ccc(OC)cc31)[C@@H]2C` [Compound 8, (E)-methyl 4-((6S,11R)-3-(cyclopropylmethyl)-8-methoxy-11-methyl-1,2,3,4,5,6-hexahydro-2,6-methanobenzo[d]azocin-6-yl)but-2-enoate], the results for the inhibitory constant (Ki) on μ-opioid receptor [1] (setting [7]) and at κ opioid receptor [5] (setting [10]) were 1810 ± 553 nM and 3.21 ± 0.76 nM, respectively. For the same molecule, the results for the Emax at κ opioid receptor [2] and at μ-opioid receptor [3] were 99.3% and 46.3%, respectively. Further, the concentration giving a half-maximal response (EC50) on κ opioid receptor [2] (setting [8]) worked out at 123 nM; on μ-opioid receptor [3] (setting [9]), 562 nM.
Take `COc1ccc2c(c1)[C@@]1(CCCCNCC(C)C)CCN(CC3CC3)C(C2)[C@@H]1C` [Compound 9, 4-((6S,11R)-3-(cyclopropylmethyl)-8-methoxy-11-methyl-1,2,3,4,5,6-hexahydro-2,6-methanobenzo[d]azocin-6-yl)-N-isobutylbutan-1-amine]: the figures for the Ki at μ-opioid receptor [1] (setting [7]) and at κ opioid receptor [5] (setting [10]) were 448 ± 113 nM and 1.35 ± 0.57 nM, respectively. Also, the maximal response (Emax) on κ opioid receptor [2] was determined as 103%; on μ-opioid receptor [3] it was 60%. Also, the 50% effective concentration (EC50) is 58.1 nM on κ opioid receptor [2] (setting [8]) and 643 nM on μ-opioid receptor [3] (setting [9]).
With `COc1ccc2c(c1)[C@@]1(CCCCOCc3ccccc3)CCN(CC3CC3)C(C2)[C@@H]1C` [Compound 12, (6S,11R)-6-(4-(benzyloxy)butyl)-3-(cyclopropylmethyl)-8-methoxy-11-methyl-1,2,3,4,5,6-hexahydro-2,6-methanobenzo[d]azocine], the Ki on μ-opioid receptor [1] (setting [7]) is 166 ± 51.8 nM; at κ opioid receptor [5] (setting [10]), 0.27 ± 0.01 nM. Further, the Emax at κ opioid receptor [2] was 97.7%; at μ-opioid receptor [3], 30.8%. Moreover, the EC50 on κ opioid receptor [2] (setting [8]) is 14.4 nM; at μ-opioid receptor [3] (setting [9]), 580 nM.
Take `COc1ccc2c(c1)[C@@]1(CCCCO)CCN(CC3CC3)C(C2)[C@@H]1C` [Compound 13, 4-((6S,11R)-3-(cyclopropylmethyl)-8-methoxy-11-methyl-1,2,3,4,5,6-hexahydro-2,6-methanobenzo[d]azocin-6-yl)butan-1-ol]: the values for the Ki at μ-opioid receptor [1], on κ opioid receptor [5] and on δ opioid receptor [6] were 3420 ± 763 nM, 7.15 ± 0.86 nM and 16200 ± 3050 nM, respectively. In addition, on κ opioid receptor [2], the concentration giving a half-maximal response (EC50) is 296 nM. Further, the Emax on κ opioid receptor [2] amounted to 71.3%.
With `COc1ccc2c(c1)[C@@]1(CCCC(=O)N[C@@H](C)C(N)=O)CCN(CC3CC3)C(C2)[C@@H]1C` [Compound 14, N—((S)-1-amino-1-oxopropan-2-yl)-4-((6S,11R)-3-(cyclopropylmethyl)-8-methoxy-11-methyl-1,2,3,4,5,6-hexahydro-2,6-methanobenzo[d]azocin-6-yl)butanamide], the Ki at μ-opioid receptor [1] (setting [7]) came out at 4270 ± 1360 nM; on κ opioid receptor [5] (setting [10]) it was 44 ± 17.7 nM. The maximal effect (Emax) at κ opioid receptor [2] came to 63%; at μ-opioid receptor [3] it was 64%. Moreover, the EC50 amounted to 1050 nM at κ opioid receptor [2] (setting [8]) and 1300 nM at μ-opioid receptor [3] (setting [9]).
With `CC(C)N1CC[C@@]2(CCCC(N)=O)c3cc(O)ccc3C[C@@H]1[C@@H]2C` [Compound 17, 4-((2R,6R,11R)-8-hydroxy-3-isopropyl-11-methyl-1,2,3,4,5,6-hexahydro-2,6-methanobenzo[d]azocin-6-yl)butanamide], the inhibitory constant (Ki) on μ-opioid receptor [1] (setting [7]) is 165 ± 6.97 nM; at κ opioid receptor [5] (setting [10]), 5 ± 0.53 nM. In addition, the results for the Emax at κ opioid receptor [2] and on μ-opioid receptor [3] were 60.7% and 38%, respectively. Moreover, the values for the 50% effective concentration (EC50) on κ opioid receptor [2] (setting [8]) and on μ-opioid receptor [3] (setting [9]) were 107 nM and 68.2 nM, respectively.
`C[C@H]1[C@H]2Cc3ccc(O)cc3[C@]1(CCCC(N)=O)CCN2CC1CC1` [Compound 20, 4-((2R,6R,11R)-3-(cyclopropylmethyl)-8-hydroxy-11-methyl-1,2,3,4,5,6-hexahydro-2,6-methanobenzo[d]azocin-6-yl)butanamide]: the Ki at μ-opioid receptor [1] (setting [7]) stood at 5.38 ± 0.43 nM; on κ opioid receptor [5] (setting [10]) it was 0.08 ± 0.01 nM. In addition, the Emax was determined as 58.2% on κ opioid receptor [2] and 19% at μ-opioid receptor [3]. Also, the EC50 at κ opioid receptor [2] (setting [8]) came to 6 nM; on μ-opioid receptor [3] (setting [9]) it was 3.18 nM.
For the molecule `C[C@H](NC(=O)CCC[C@]12CCN(CC3CC3)[C@H](Cc3ccc(O)cc31)[C@@H]2C)C(N)=O` [Compound 22, N—((S)-1-amino-1-oxopropan-2-yl)-4-((2R,6R,11R)-3-(cyclopropylmethyl)-8-hydroxy-11-methyl-1,2,3,4,5,6-hexahydro-2,6-methanobenzo[d]azocin-6-yl)butanamide], the Ki at μ-opioid receptor [1] (setting [7]) worked out at 6.33 ± 1.54 nM; at κ opioid receptor [5] (setting [10]), 0.41 ± 0.08 nM. Besides, the Emax on κ opioid receptor [2] was found to be 53.3%; on μ-opioid receptor [3] it was 22.3%. In addition, the values for the EC50 on κ opioid receptor [2] (setting [8]) and at μ-opioid receptor [3] (setting [9]) were 13.2 nM and 0.7 nM, respectively.
As for `COC(=O)c1cccc(C(=O)NCC[C@]23CCN(CC4CC4)[C@H](Cc4ccc(OC)cc42)[C@@H]3C)c1` [Compound 26, methyl 3-((2-((2R,6R,11R)-3-(cyclopropylmethyl)-8-methoxy-11-methyl-1,2,3,4,5,6-hexahydro-2,6-methanobenzo[d]azocin-6-yl)ethyl)carbamoyl)benzoate], the inhibition constant (Ki) amounted to 158 ± 44.3 nM at μ-opioid receptor [1] (setting [7]) and 0.51 ± 0.07 nM at κ opioid receptor [5] (setting [10]). In addition, the Emax at κ opioid receptor [2] was determined as 105%; on μ-opioid receptor [3], 95%. Also, the values for the EC50 on κ opioid receptor [2] (setting [8]) and on μ-opioid receptor [3] (setting [9]) were 15.3 nM and 46.1 nM, respectively.

(Values after US20180127374A1, “BE[…] AS OPIOID RECEPTORS MODULATORS” (Purdue Pharma L.P., priority 2012, published 2018).)
